Reference: publication PMC11406361, “Several orphan solute carriers functionally identified as organic cation transporters: Substrates specificity compared with known cation transporters” (The Journal of Biological Chemistry, 2024)

Legend:
SLC22A15 = molecular target: T1, SLC22A15 (Homo sapiens, UniProt Q8IZD6); assay: Uptake ratio screen, SLC22A15-overexpressing HEK293 over empty vector cells; format: cell-based; conditions: 2.5 μM (nicotine 10 μM), 2 min
T1 construct: by amplifying the entire gene-of-interest within the HEK293 genome via a long-range PCR
Method: (§1) Typically discussed substrates of the proton organic-cation antiporter ([14]) are highlighted in dark green in Figure 1.
(§2) In preparation for transport experiments, 24-well plates were pre-coated with poly-D-lysine (Sigma-Aldrich) and 300,000 cells were plated per well and incubated for 48 h. Firstly, the 24-well plate was placed on a heating plate at 37 °C, and the cells were washed with 37 °C HBSS^+ buffer (Hank’s balanced salt solution supplemented with 10 mM Hepes and adjusted to pH 7.4; Thermo Fisher Scientific). The substance-of-interest, which was diluted in 37 °C HBSS^+ to a desired concentration, was added to the cells for exactly 2 min. […] The uptake was stopped with ice-cold HBSS^+, and the 24-well plate was removed from the heating plate. The cells were washed twice with the cold HBSS^+ before they were lysed for 15 min with 80% (v/v) acetonitrile containing the respective internal standard for mass spectrometry. For variations in seeded cell numbers between the cell lines, several wells were lysed in RIPA buffer and used for total protein quantification using a bicinchoninic assay ([74]) and bovine serum albumin as calibration.
(§3) The intracellular drug concentrations after transport experiments were analyzed by high-performance liquid chromatography coupled to tandem mass spectrometry analysis. The HPLC consisted of a Shimadzu Nexera HPLC System with a SIL-30AC autosampler, a LC-30AD pump, a CTO-20AC column oven, and a CBM-20A controller (Shimadzu). The reverse-phase chromatography of compounds was accomplished with a Brownlee SPP RP-Amide column with 4.6 × 100 mm inner dimensions, a particle size of 2.7 μm, and a preceding Phenomenex C-18 guard column. The mobile phase was composed of an organic additive with acetonitrile:methanol 6:1 (v/v) in total concentrations between 3% and 50% (v/v) and 0.1% (v/v) formic acid in the aqueous component of the eluent. During separation, the column oven was held at 40 °C and the mobile phase was maintained at a flow rate of 300 or 400 μl/min. After separation, the detection of substances was performed with an API 4000 tandem mass spectrometer (AB SCIEX, https://sciex.com/support/software-support/software-downloads), followed by quantification of results with the Analyst software (AB SCIEX, version 1.6.2). The composition of chromatographic conditions, as well as detailed mass spectrometric detection parameters, are listed in Table S5.
(§4) Transport-mediated net uptake was determined as fold-increase of transporter-overexpressing cells over empty vector–transfected control cells.

SLC35G3 [1] = molecular target: T2, SLC35G3 (Homo sapiens, UniProt Q8N808); assay: Uptake ratio screen, SLC35G3-overexpressing HEK293 over empty vector cells; format: cell-based; design: by amplifying the entire gene-of-interest within the HEK293 genome via a long-range PCR; conditions: 2.5 μM substrate, 2 min, HEK293
SLC47A2 = SLC47A2 (Homo sapiens, UniProt Q86VL8); assay: Uptake ratio screen, SLC47A2-overexpressing HEK293 over empty vector cells; format: cell-based; conditions: 2.5 μM, 2 min
Method: as §1, §2
(§5) The intracellular drug concentrations after transport experiments were analyzed by high-performance liquid chromatography coupled to tandem mass spectrometry analysis. The HPLC consisted of a Shimadzu Nexera HPLC System with a SIL-30AC autosampler, a LC-30AD pump, a CTO-20AC column oven, and a CBM-20A controller (Shimadzu). The reverse-phase chromatography of compounds was accomplished with a Brownlee SPP RP-Amide column with 4.6 × 100 mm inner dimensions, a particle size of 2.7 μm, and a preceding Phenomenex C-18 guard column. […] After separation, the detection of substances was performed with an API 4000 tandem mass spectrometer (AB SCIEX, https://sciex.com/support/software-support/software-downloads), followed by quantification of results with the Analyst software (AB SCIEX, version 1.6.2). […]
as §4

SLC47A1 = molecular target: T3, SLC47A1 (Homo sapiens, UniProt Q96FL8); assay: Uptake ratio screen, SLC47A1-overexpressing HEK293 over empty vector cells; format: cell-based; conditions: 2.5 μM, 2 min
T3 sequence (Q96FL8 1-570): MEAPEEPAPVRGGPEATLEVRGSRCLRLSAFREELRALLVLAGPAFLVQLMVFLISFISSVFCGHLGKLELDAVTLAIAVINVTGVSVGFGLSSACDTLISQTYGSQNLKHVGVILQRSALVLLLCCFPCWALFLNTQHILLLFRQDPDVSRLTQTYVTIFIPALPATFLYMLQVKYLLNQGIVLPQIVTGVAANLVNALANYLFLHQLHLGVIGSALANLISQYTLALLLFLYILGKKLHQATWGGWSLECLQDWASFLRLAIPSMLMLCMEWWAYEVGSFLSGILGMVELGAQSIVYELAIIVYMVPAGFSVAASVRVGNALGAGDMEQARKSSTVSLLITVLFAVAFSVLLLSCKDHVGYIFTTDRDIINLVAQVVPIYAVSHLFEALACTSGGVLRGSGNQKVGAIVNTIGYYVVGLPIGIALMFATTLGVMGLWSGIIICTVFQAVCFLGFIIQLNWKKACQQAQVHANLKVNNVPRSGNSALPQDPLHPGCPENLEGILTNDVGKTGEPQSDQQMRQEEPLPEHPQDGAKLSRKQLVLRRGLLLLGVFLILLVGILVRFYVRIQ
Method: as §1, §2, §5, §4

SLC38A10 = SLC38A10 (Homo sapiens, UniProt Q9HBR0)
SLC22A18 = molecular target: T4, SLC22A18 (Homo sapiens, UniProt Q96BI1); assay: Uptake ratio screen, SLC22A18-overexpressing HEK293 over empty vector cells; format: cell-based; conditions: 2.5 μM (nicotine 10 μM), 2 min
T4 construct: by amplifying the entire gene-of-interest within the HEK293 genome via a long-range PCR
Method: as §1
In preparation for transport experiments, 24-well plates were pre-coated with poly-D-lysine (Sigma-Aldrich) and 300,000 cells were plated per well and incubated for 48 h. Firstly, the 24-well plate was placed on a heating plate at 37 °C, and the cells were washed with 37 °C HBSS^+ buffer (Hank’s balanced salt solution supplemented with 10 mM Hepes and adjusted to pH 7.4; Thermo Fisher Scientific). The substance-of-interest, which was diluted in 37 °C HBSS^+ to a desired concentration, was added to the cells for exactly 2 min. […] For variations in seeded cell numbers between the cell lines, several wells were lysed in RIPA buffer and used for total protein quantification using a bicinchoninic assay ([74]) and bovine serum albumin as calibration.
The intracellular drug concentrations after transport experiments were analyzed by high-performance liquid chromatography coupled to tandem mass spectrometry analysis. […] After separation, the detection of substances was performed with an API 4000 tandem mass spectrometer (AB SCIEX, https://sciex.com/support/software-support/software-downloads), followed by quantification of results with the Analyst software (AB SCIEX, version 1.6.2). […]

SLC35F5 = molecular target: T5, SLC35F5 (Homo sapiens, UniProt Q8WV83); assay: Uptake ratio screen, SLC35F5-overexpressing HEK293 over empty vector cells; format: cell-based; design: by amplifying the entire gene-of-interest within the HEK293 genome via a long-range PCR; conditions: 2.5 μM, 2 min
T5 sequence (Q8WV83 1-523): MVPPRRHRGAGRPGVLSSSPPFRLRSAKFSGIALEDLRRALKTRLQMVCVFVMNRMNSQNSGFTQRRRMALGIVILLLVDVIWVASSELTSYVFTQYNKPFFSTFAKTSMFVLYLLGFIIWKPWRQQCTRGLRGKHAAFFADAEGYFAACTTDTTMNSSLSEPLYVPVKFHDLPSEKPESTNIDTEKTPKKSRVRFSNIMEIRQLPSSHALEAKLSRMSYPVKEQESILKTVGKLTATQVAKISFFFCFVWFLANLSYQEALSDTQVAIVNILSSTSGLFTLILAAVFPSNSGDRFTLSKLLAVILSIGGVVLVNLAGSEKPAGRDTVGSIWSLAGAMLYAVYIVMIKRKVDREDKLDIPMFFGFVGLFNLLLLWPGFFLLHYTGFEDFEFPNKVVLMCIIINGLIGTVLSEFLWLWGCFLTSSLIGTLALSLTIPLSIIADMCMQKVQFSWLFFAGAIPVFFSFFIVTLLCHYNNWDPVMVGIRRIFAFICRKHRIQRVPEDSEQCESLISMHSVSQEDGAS
Method: as §1, §2, §3, §4

SLC35F4 = molecular target: T6, SLC35F4 (Homo sapiens, UniProt A4IF30); assay: Uptake ratio screen, SLC35F4-overexpressing HEK293 over empty vector cells; format: cell-based; design: by amplifying the entire gene-of-interest within the HEK293 genome via a long-range PCR; conditions: 2.5 μM, 2 min
T6 sequence (A4IF30 1-521): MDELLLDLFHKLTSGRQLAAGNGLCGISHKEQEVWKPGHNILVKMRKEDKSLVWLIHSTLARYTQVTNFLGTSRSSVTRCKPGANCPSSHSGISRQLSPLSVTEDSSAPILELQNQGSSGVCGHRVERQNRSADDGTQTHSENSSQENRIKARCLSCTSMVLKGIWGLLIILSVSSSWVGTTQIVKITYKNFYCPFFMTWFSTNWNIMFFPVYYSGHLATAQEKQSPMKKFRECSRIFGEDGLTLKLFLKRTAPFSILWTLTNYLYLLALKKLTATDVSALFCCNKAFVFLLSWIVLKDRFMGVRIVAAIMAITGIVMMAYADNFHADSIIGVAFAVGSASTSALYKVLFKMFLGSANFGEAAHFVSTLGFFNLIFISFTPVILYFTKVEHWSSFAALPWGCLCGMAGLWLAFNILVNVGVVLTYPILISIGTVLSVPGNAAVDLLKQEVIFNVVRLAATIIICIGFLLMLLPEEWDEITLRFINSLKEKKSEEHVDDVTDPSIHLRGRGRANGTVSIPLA
Method: as §1, §2, §3, §4

SLC19A2 = molecular target: T7, SLC19A2 (Homo sapiens, UniProt O60779); assay: Uptake ratio screen, SLC19A2-overexpressing HEK293 over empty vector cells; format: cell-based; conditions: 2.5 μM, 2 min
T7 construct: expressed in transfected cells
T7 sequence (O60779 1-497): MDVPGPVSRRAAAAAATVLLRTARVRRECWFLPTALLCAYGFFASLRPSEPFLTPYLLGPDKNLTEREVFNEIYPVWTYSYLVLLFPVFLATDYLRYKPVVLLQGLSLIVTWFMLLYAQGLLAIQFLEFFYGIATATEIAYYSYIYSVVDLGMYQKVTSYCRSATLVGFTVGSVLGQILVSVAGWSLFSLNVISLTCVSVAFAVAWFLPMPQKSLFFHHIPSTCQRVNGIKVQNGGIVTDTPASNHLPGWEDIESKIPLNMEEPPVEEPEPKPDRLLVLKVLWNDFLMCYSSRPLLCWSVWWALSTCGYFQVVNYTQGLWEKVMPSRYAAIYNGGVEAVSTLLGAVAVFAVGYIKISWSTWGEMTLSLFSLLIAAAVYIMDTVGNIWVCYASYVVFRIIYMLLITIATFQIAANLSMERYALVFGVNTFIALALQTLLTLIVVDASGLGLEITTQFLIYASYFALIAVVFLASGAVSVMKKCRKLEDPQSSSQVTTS
Method: as §1, §2, §5, §4

SLC35G3 [2] = molecular target: T2, SLC35G3
SLC35E4 = molecular target: T8, SLC35E4 (Homo sapiens, UniProt Q6ICL7); assay: Uptake ratio screen, SLC35E4-overexpressing HEK293 over empty vector cells; format: cell-based; design: by amplifying the entire gene-of-interest within the HEK293 genome via a long-range PCR; conditions: 2.5 μM, 2 min
T8 sequence (Q6ICL7 1-350): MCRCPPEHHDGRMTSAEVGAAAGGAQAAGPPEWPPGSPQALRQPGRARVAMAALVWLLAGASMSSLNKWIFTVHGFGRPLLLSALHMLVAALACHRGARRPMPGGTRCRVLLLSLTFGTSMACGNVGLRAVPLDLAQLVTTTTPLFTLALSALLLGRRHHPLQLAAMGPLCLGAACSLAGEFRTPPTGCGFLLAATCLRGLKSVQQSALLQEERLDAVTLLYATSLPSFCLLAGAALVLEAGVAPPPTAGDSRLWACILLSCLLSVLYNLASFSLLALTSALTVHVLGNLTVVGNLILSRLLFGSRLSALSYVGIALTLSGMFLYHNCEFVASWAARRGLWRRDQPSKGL
Method: as §1, §2, §5, §4

T2 sequence (Q8N808 whole entry): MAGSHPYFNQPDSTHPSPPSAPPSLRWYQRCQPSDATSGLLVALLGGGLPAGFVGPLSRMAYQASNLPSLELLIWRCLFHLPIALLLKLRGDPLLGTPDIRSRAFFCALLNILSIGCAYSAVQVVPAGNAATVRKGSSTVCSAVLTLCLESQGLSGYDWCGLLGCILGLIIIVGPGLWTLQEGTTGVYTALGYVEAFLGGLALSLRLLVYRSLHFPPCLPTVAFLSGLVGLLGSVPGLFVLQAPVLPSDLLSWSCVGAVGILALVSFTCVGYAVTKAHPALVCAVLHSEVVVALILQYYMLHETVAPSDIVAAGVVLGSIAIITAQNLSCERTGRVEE
T1 sequence (Q8IZD6 whole entry): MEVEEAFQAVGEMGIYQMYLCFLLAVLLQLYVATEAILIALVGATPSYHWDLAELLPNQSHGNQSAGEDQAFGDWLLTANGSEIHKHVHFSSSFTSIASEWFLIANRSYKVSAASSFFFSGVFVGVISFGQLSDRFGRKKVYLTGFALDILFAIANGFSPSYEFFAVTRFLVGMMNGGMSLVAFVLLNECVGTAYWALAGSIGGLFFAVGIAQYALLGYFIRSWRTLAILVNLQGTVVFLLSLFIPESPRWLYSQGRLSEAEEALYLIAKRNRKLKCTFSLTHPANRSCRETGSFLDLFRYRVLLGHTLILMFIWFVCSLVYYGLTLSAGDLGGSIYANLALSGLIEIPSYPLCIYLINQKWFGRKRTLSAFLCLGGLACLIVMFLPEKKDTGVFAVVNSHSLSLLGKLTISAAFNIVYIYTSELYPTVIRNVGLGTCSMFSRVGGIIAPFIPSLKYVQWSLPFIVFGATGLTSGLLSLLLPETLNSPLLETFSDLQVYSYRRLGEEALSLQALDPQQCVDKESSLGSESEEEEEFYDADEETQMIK
T4 sequence (Q96BI1 whole entry): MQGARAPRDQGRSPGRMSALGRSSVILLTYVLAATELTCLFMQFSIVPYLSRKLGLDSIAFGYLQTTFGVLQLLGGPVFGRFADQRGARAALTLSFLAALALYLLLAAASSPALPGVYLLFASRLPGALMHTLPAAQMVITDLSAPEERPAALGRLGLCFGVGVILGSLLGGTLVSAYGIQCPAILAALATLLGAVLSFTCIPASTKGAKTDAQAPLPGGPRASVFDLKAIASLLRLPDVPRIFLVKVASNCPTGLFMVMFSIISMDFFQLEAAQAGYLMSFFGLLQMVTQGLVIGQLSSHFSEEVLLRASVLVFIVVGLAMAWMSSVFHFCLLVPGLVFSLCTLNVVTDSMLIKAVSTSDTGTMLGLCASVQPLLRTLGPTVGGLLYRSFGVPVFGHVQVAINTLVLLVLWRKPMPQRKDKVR
SLC38A10, sequence (Q9HBR0 whole entry): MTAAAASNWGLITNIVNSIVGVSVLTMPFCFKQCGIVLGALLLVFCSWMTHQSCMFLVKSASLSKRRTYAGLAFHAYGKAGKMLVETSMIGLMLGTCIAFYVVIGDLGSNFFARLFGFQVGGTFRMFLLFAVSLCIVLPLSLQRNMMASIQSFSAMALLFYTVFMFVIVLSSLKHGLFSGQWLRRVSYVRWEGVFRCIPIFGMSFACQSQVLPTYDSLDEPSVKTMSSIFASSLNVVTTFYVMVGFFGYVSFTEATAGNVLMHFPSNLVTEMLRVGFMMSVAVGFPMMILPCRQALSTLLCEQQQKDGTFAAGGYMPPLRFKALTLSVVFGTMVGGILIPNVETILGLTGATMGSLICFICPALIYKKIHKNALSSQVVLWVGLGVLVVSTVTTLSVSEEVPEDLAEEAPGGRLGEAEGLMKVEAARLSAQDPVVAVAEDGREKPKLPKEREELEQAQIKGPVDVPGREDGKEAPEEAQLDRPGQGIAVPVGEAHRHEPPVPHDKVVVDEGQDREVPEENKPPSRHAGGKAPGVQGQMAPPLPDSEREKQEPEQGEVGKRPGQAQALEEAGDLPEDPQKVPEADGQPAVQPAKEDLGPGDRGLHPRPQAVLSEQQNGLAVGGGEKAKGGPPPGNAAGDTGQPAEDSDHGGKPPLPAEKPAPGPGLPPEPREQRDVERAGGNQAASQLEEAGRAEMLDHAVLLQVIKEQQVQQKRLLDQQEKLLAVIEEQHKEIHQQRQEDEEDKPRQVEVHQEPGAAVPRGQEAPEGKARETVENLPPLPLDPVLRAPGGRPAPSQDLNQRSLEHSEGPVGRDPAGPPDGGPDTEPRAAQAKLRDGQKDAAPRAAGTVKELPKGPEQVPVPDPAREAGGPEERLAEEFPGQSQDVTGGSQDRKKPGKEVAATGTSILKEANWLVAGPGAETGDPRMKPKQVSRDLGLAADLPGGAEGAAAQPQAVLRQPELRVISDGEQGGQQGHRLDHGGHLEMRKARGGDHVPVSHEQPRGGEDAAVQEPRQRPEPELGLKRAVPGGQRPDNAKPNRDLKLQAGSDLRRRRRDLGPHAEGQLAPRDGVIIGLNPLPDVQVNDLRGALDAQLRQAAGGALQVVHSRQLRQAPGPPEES
SLC47A2, sequence (Q86VL8 1-566 isoform Q86VL8-3): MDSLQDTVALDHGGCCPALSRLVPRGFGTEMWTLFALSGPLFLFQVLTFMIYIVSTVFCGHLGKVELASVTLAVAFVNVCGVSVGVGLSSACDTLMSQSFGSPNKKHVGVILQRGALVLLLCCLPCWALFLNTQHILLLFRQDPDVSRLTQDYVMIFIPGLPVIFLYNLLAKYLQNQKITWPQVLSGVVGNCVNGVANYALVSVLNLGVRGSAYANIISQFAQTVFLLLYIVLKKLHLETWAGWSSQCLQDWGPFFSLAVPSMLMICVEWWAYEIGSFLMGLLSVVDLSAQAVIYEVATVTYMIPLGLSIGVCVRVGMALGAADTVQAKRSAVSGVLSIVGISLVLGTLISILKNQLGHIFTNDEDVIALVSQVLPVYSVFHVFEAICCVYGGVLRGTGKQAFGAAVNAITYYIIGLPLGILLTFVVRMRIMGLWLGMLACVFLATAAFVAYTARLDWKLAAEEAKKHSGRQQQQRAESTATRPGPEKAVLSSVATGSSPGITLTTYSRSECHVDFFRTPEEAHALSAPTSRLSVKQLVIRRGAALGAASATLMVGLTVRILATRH

## C[N+](C)(C)CC(O)CC(=O)[O-] (stereo not drawn) [Carnitine-d9]
SLC22A15
  Uptake by SLC22A15 (in words): did not measure significant uptake
SLC35G3 [1]
  Uptake data for SLC35G3, mean value (fold-increase over empty vector control): 1.05

## C[C@]12CC[C@@H]3c4ccc(OS(=O)(=O)O)cc4CC[C@H]3[C@@H]1CCC2=O [estrone-3-sulfate]
SLC47A2
  Uptake by SLC47A2 (MATE2K) (in words): confirmed to be transported
SLC47A1
  Uptake by SLC47A1 (MATE1) (in words): confirmed to be transported

## CN1CCC[C@H]1c1cccnc1 [Nicotine]
SLC38A10; SLC38A10, HEK293, net uptake over empty vector cells
  Vmax (±SEM): 48.4 (±7.26) pmol × mg protein^-1 × min^-1
SLC38A10; SLC38A10, ratio of Vmax over KM
  Clint (±SEM): 0.78 (±0.57) μl × mg protein^-1 × min^-1
SLC22A18
  Uptake by SLC22A18 (in words): newly identified substrates
SLC22A15
  Uptake by SLC22A15 (in words): significantly increased the uptake

## COC(=O)C(c1ccccc1)C1CCCCN1 (stereo not drawn) [Methylphenidate]
SLC35F5
  Uptake by SLC35F5 (in words): highest uptake rates
SLC35F4
  Uptake by SLC35F4 (in words): enhanced cell uptake
SLC22A18
  Uptake by SLC22A18 (in words): newly identified substrates
SLC19A2
  Uptake by SLC19A2 (in words): enhance cell uptake
SLC35G3 [1]
  Uptake data for SLC35G3, mean value (fold-increase over empty vector control): 1.31

## CCCN1CCCC[C@H]1C(=O)Nc1c(C)cccc1C [Ropivacaine]
SLC35G3 [2]
  Clint (±SEM): 3.64 (±1.93) μl × mg protein^-1 × min^-1
SLC35G3 [1]
  Uptake data for SLC35G3, mean value (fold-increase over empty vector control): 3.07

## CCCNC(C)C(=O)Nc1c(C)csc1C(=O)OC (stereo not drawn) [Articaine]
SLC35G3 [2]
  Clint (±SEM): 2.04 (±2.24) μl × mg protein^-1 × min^-1
SLC35G3 [1]
  Uptake data for SLC35G3, mean value (fold-increase over empty vector control): 2.91

## CC(C)C[C@H](N)C(=O)O [leucine]
SLC35E4
  Uptake by SLC35E4 (in words): minor
